Experimental data taken from the supplement of paper PMC10307832.

Experiments:
Assay in all cases: relative viability (nuclei count vs DMSO), 5 days (fraction); higher = more cells survive
[1] = compound: CCN(CCO)CCCC(C)Nc1ccnc2cc(Cl)ccc12 [Hydroxychloroquine] + CC(=O)c1c(C)c2cnc(Nc3ccc(N4CCNCC4)cn3)nc2n(C2CCCC2)c1=O [Palbociclib] (partner 0.5 µM)
Outline: (§1)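 Relative viability was taken as the ratio of nuclei in treated wells to nuclei in vehicle wells. Lung cancer cell lines in 1536-well plates received compounds by pin tool one day after seeding, either one drug alone or a fixed anchor-drug dose plus five library-drug doses (not always all listed) in √10 steps. Nuclei were counted on 4× images after 5 days of treatment, and values are medians of duplicate plates.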

[2] = compound: CCN(CCO)CCCC(C)Nc1ccnc2cc(Cl)ccc12 [Hydroxychloroquine] + C[C@@H](Oc1cc(-c2cnn(C3CCNCC3)c2)cnc1N)c1c(Cl)ccc(F)c1Cl [Crizotinib] (partner 1 µM)
Outline: as §1

[3] = compound: CCN(CCO)CCCC(C)Nc1ccnc2cc(Cl)ccc12 [Hydroxychloroquine] + NC(=O)Nc1cc(-c2cccc(F)c2)sc1C(=O)N[C@H]1CCCNC1 [AZD7762] (partner 0.2 µM)
Outline: as §1

[4] = compound: CCN(CCO)CCCC(C)Nc1ccnc2cc(Cl)ccc12 [Hydroxychloroquine] + O=C(CCCCCCC(=O)Nc1ccccc1)NO [Vorinostat] (partner 1 µM)
Outline: as §1

Row | Cell Line | relative viability ([1]; first compound 0.5 µM) | relative viability ([1]; first compound 1.581 µM) | relative viability ([1]; first compound 5 µM) | relative viability ([1]; first compound 15.81 µM) | relative viability ([1]; first compound 50 µM) | relative viability ([2]; first compound 0.5 µM) | relative viability ([2]; first compound 1.581 µM) | relative viability ([2]; first compound 5 µM) | relative viability ([2]; first compound 15.81 µM) | relative viability ([2]; first compound 50 µM) | relative viability ([3]; first compound 0.5 µM) | relative viability ([3]; first compound 1.581 µM) | relative viability ([3]; first compound 5 µM) | relative viability ([3]; first compound 15.81 µM) | relative viability ([3]; first compound 50 µM) | relative viability ([4]; first compound 0.5 µM) | relative viability ([4]; first compound 1.581 µM) | relative viability ([4]; first compound 5 µM) | relative viability ([4]; first compound 15.81 µM) | relative viability ([4]; first compound 50 µM)
1 | NCI-H1355 | 0.41 | 0.365 | 0.392 | 0.387 | 0.379 | 1.08 | 1.01 | 1.11 | 1.08 | 1.1 | 0.747 | 0.795 | 0.679 | 0.72 | 0.81 | 0.657 | 0.582 | 0.631 | 0.63 | 0.657
2 | NCI-H1437 | 0.291 | 0.328 | 0.328 | 0.295 | 0.336 | 0.824 | 0.985 | 0.963 | 0.97 | 1.03 | 1.13 | 1.15 | 1.08 | 1.14 | 1.14 | 0.853 | 0.862 | 0.85 | 0.844 | 0.891
3 | NCI-H1651 | 0.536 | 0.5 | 0.517 | 0.567 | 0.54 | 0.926 | 0.884 | 0.83 | 0.853 | 0.911 | 0.501 | 0.585 | 0.47 | 0.451 | 0.457 | 0.582 | 0.589 | 0.583 | 0.579 | 0.493
4 | NCI-H1666 | 0.651 | 0.67 | 0.653 | 0.646 | 0.622 | 0.872 | 1.11 | 0.948 | 0.837 | 1.14 | 0.891 | 0.791 | 0.806 | 0.774 | 0.72 | 0.991 | 0.943 | 1.01 | 0.92 | 0.936
5 | NCI-H1734 | 0.316 | 0.296 | 0.37 | 0.305 | 0.362 | 0.652 | 0.559 | 0.741 | 0.582 | 0.716 | 0.62 | 0.562 | 0.649 | 0.644 | 0.622 | 0.856 | 0.697 | 0.787 | 0.866 | 0.826
6 | NCI-H1755 | 0.459 | 0.398 | 0.445 | 0.443 | 0.475 | 0.983 | 0.768 | 0.86 | 0.866 | 0.879 | 0.616 | 0.447 | 0.396 | 0.445 | 0.514 | 0.79 | 0.656 | 0.778 | 0.734 | 0.737
7 | NCI-H1915 | 0.532 | 0.495 | 0.559 | 0.568 | 0.542 | 0.953 | 0.935 | 0.937 | 0.982 | 1.01 | 0.65 | 0.742 | 0.731 | 0.711 | 0.707 | 0.521 | 0.456 | 0.48 | 0.549 | 0.5
8 | NCI-H1944 | 0.301 | 0.314 | 0.319 | 0.29 | 0.346 | 1.07 | 1.06 | 1.07 | 1.04 | 1.19 | 0.828 | 0.75 | 0.513 | 0.432 | 0.455 | 0.553 | 0.487 | 0.46 | 0.478 | 0.56
9 | NCI-H1975 | 0.47 | 0.53 | 0.603 | 0.615 | 0.789 | 1.05 | 1.08 | 0.926 | 1.06 | 1.15 | 0.679 | 0.659 | 0.752 | 0.698 | 0.754 | 0.682 | 0.704 | 0.8 | 0.742 | 0.717
10 | NCI-H1993 | 0.6 | 0.575 | 0.692 | 0.662 | 0.693 | 0.867 | 0.948 | 0.803 | 0.888 | 0.949 | 0.699 | 0.597 | 0.927 | 0.79 | 0.817 | 0.828 | 0.837 | 0.599 | 0.656 | 0.727
11 | NCI-H2085 | 0.473 | 0.422 | 0.48 | 0.484 | 0.455 | 0.904 | 0.783 | 0.826 | 0.753 | 0.847 | 1.03 | 0.933 | 0.922 | 0.927 | 1.06 | 0.853 | 0.63 | 0.822 | 0.847 | 0.873
12 | NCI-H2087 | 0.189 | 0.227 | 0.231 | 0.189 | 0.213 | 1.02 | 0.982 | 1.09 | 0.864 | 1.11 | 1.33 | 1.19 | 1.46 | 1.32 | 1.48 | 0.719 | 0.74 | 0.778 | 0.798 | 0.609
13 | NCI-H2126 | 0.34 | 0.341 | 0.34 | 0.333 | 0.379 | 1.12 | 1.06 | 1.11 | 0.984 | 1.13 | 1.07 | 1.12 | 0.984 | 1.08 | 1.03 | 0.834 | 0.728 | 0.749 | 0.733 | 0.897
14 | NCI-H2170 | 0.379 | 0.401 | 0.415 | 0.4 | 0.421 | 1.24 | 1.24 | 1.35 | 1.27 | 1.57 | 0.925 | 0.918 | 0.867 | 0.882 | 1.09 | 0.784 | 0.839 | 0.829 | 0.878 | 0.95
15 | NCI-H2347 | 0.457 | 0.418 | 0.414 | 0.515 | 0.383 | 0.887 | 0.588 | 0.544 | 0.728 | 0.85 | 0.657 | 0.692 | 0.806 | 0.701 | 0.882 | 0.663 | 0.456 | 0.604 | 0.639 | 0.58
16 | NCI-H2405 | 0.557 | 0.471 | 0.576 | 0.516 | 0.516 | 0.856 | 0.813 | 0.867 | 0.88 | 0.864 | 0.879 | 0.841 | 0.717 | 0.675 | 0.768 | 1.05 | 0.963 | 0.937 | 1.03 | 0.999
